From patent US5688670A, “Self-modifying RNA molecules and methods of making” (The General Hospital Corporation, priority 1994, dated 1997)
Values joined by “and” are separate entries in the source; they are usually repeats but may differ in a detail not shown here. Equal values may be shown once. Values belong to the molecule of their own block, whether it stands above or below them.

Columns and labels:
[1] = tested on: polynucleotide kinase ribozyme Class II (Kin.25); test: kinetic analysis of auto-thiophosphorylation by kinase ribozyme; type: biochemical
Protocol: (§1) Because the random pool initially prepared sampled sequence space very sparsely (there are between 4^100 and 10^60 possible 100-mers, but only approximately 10^16 different molecules in the pool), active molecules are likely to be sub-optimal catalysts. Accordingly, three cycles of mutagenic PCR (before selection cycles 7, 8, and 9) were performed to allow the evolution of improvements in the active molecules. Mutagenic PCR was performed as described by Bartel and Szostak (Science, 61:1411, 1993) and by Cadwell and Joyce (PCR Methods Appl., 28, 1992). Briefly, thirty total cycles of PCR were done at each round to yield - 2% mutagenesis. Reactions of pool RNAs were performed either with trace ATP-γ-^35 S, or with 100 μM ATP-γ-S plus additional trace ATP-γ-^35 S. Dithiothreitol (DTT, 10 mM) was included in the reactions. Reactions were quenched by the addition of one volume of 150 mM EDTA, 20 mM DTT in 95% formamide. Reactions were analyzed by electrophoresis on 10% polyacrylamide/8M urea gels. Quantitation was performed using a PhosphorImager (Molecular Dynamics). A known amount of ATP-γ-^35 S was spotted on the gels as a standard. The combined effect of increasing the stringency and performing mutagenic PCR was to increase the activity of the pool by nearly three orders of magnitude from cycle 6 to cycle 13 (FIG. 4).
(§2) Rates for each clone were determined (as described herein) at 6 different ATP-γ-S concentrations, ranging from 2 μM-[…].

[2] = tested on: polynucleotide kinase ribozyme Class III (Kin.42); test: as above; type: biochemical; conditions: 6 ATP-γ-S concentrations
Protocol: as §1, §2

[3] = tested on: polynucleotide kinase ribozyme Class IV (Kin.44); test: as above; type: biochemical; conditions: 6 ATP-γ-S concentrations
Protocol: as §1, §2

[4] = molecular target: ATP-40-1 RNA (40-nucleotide ATP aptamer); test: isocratic elution from ATP-C8-agarose column; type: binding; conditions: upper estimate, 5 mM Mg
Protocol: (§3) Isocratic elution (Arnold et al., J. Chromatography 31:1, 1986) from ATP-agarose and equilibrium gel filtration (Fersht, in Enzyme Structure and Mechanism p. 186-188, Freeman, New York, 1985) was used to measure the dissociation constant for the RNA-ATP complex on the column and in solution. […] The Kd for the ATP-agarose complex is an upper estimate, because the fraction of bound ATP that is accessible to the RNA is not known. The solution Kd for adenosine was similar to that of ATP (5-8 μM), but the Kd for dATP was not measurable (>1 mM). The Kd of ATP-40-1 for its ligand dropped to 2 μM when the Mg^+2 concentration was raised from 5 to 20 mM. Changing the base pair U18-A33 to C-G, as found in most of the clones initially selected, further decreased the Kd to 0.7 μM. At almost saturating concentrations of ATP (50 μM), the RNA bound ~0.7 equivalents of ATP. The RNA likely binds its ligands with a stoichiometry of unit.

[5] = molecular target: ATP-40-1 RNA (40-nucleotide ATP aptamer); test: equilibrium gel filtration (solution Kd); type: binding
Protocol: as §3

[6] = molecular target: Class I aptamer RNA (ATP aptamer region of Class I kinase ribozyme); test: binding of kinase-class aptamer region RNA to C-8 linked ATP agarose; conditions: no detectable interaction with ATP agarose
Excerpt: (§4) Either the right or left hand stems of the Class II, VI and VII aptamer regions appear to be missing, and it seems likely that these molecules have found novel modes of binding their substrates. Using run-off transcription of synthetic DNA oligonucleotides (Milligan and Uhlenbeck, Methods Enzymol. 180:51, 1989) the RNAs corresponding to the Class I, III, IV, and V aptamer regions were produced. The Class IV aptamer RNA binds weakly to C-8 linked ATP agarose (Sassanfar and Szostak, supra), consistent with a molecule having a Kd for ATP in the range of 0.05-0.5 mM. […] Presumably, the corresponding classes of kinases have developed novel modes of binding ATP-γ-S.

[7] = molecular target: Class III aptamer RNA (ATP aptamer region of Class III kinase ribozyme); test: as above; conditions: no detectable interaction with ATP agarose
Excerpt: as §4

[8] = molecular target: ATP-40-1 RNA variant, base pair U18-A33 changed to C-G; test: Kd of ATP aptamer variant; type: binding; conditions: further decrease after raising Mg+2 to 20 mM
Protocol: as §3

[9] = molecular target: ATP-binding RNA clone 19 (C8-ATP series, eighth cycle RNA population); test: binding of individual eighth-cycle clones to ATP-agarose; conditions: read-out: dissociation constant (Kd)
Protocol: (§5) A chemically synthesized pool of DNA molecules containing a central region of 120 random nucleotides 5 flanked by constant regions used as primer binding sites was PCR-amplified and transcribed in vitro by T7 RNA polymerase in the presence of [α-^32 P][…]. RNA was ethanol-precipitated and unincorporated nucleotides removed by Sephadex-G50 chromatography. Following a brief incubation at 65° C. in binding buffer (300 mM NaCl, 20 Mm Tris, pH 7.6, 5 mM MgCl2), the RNA was cooled to room temperature before being loaded onto a 1-ml ATP agarose affinity column. […] After washing with 6 column-volumes of binding buffer, bound RNAs were eluted with 3 column-volumes of binding buffer containing 4 mM ATP, then concentrated by precipitation with ethanol. For the first three cycles, an agarose pre-column was used to prevent enrichment of the RNA pool with agarose-binding RNAs, and bound RNAs were eluted with 5 mM EDTA in water rather than affinity-eluted with ATP. After reverse transcription and PCR amplification, DNA templates were transcribed and the resulting RNA was used in the next round of selection. RNA from the eighth round of selection was converted to cDNA, amplified as double-stranded DNA by PCR, digested with EcoR1 and BamHl gel-purified and cloned into the phage M13 based vector pGem3Z (Promega, Madison, Wis.).
(§6) Thirty-nine clones from the eighth cycle RNA population were sequenced seventeen different sequences were found. Of these, the most abundant sequence (C8-ATP-3) occurred 14 times, and 12 sequences occurred just once. […] Clones 2, 3, 8, 15, and 19 were individually tested for binding to ATP-agarose.

[10] = tested on: ATP-binding RNA clone 15 (C8-ATP-15); test: as above
Protocol: as §5, §6

[11] = molecular target: ATP-binding RNA clone 2 (C8-ATP series, eighth cycle RNA population); test: as above; conditions: read-out: dissociation constant (Kd)
Protocol: as §5, §6

[12] = molecular target: ATP-binding RNA clone 3 (C8-ATP-3, full-length 164-nucleotide RNA); test: as above; conditions: read-out: dissociation constant (Kd)
Protocol: as §5, §6

[13] = molecular target: ATP-binding RNA clone 8 (C8-ATP series, eighth cycle RNA population); test: as above; conditions: read-out: dissociation constant (Kd)
Protocol: as §5, §6

[14] = tested on: BL2.8-7 self-biotinylating ribozyme (re-selected from BL8-6); test: self-biotinylation time course; type: biochemical
Protocol: The rate of self-biotinylation was determined by a time course experiment. ^32 P-labelled RNA was first resuspended in incubation buffer (100 mM KCl, 10 mM Na-Hepes, pH 7.4, 5 mM MgCl2) and allowed to equilibrate for 10 minutes at room temperature. […] Samples were quenched and affinity purified as described in Haugland, Molecular Probes Handbook of Fluoprescent Probes and Research Chemicals. Aliquots were counted in a scintillation counter following ethanol precipitation (total RNA count) and following binding to streptavidin agarose (product RNA count); the ratio of these two counts is the fraction reacted. Optimizing enzymatic activity: It seemed likely that the original RNA pool from which the BL8-6 ribozyme was derived might not saturate the space of biotin-ligating ribozymes. […]
The background rate of guanosine alkylation by BIE was determined by two independent methods. […] To characterize the functional cores of the two molecules, we analyzed the sequences of active clones isolated from the two mutagenized RNA pools generated from the biotin aptamer and self-alkylating ribozyme sequences. […] Approximately thirty individual RNAs from each of these subcloned pools were sequenced and analyzed to determine which nucleotide positions were conserved and which pairs of nucleotides covaried to maintain Watson-Crick base pairing. […]

[15] = tested on: BL8-6 self-biotinylating ribozyme (SEQ ID NO: 91); test: self-biotinylation time course; type: biochemical; conditions: in the presence of 200 μM BIE
Protocol: The rate of self-biotinylation was determined by a time course experiment. ^32 P-labelled RNA was first resuspended in incubation buffer (100 mM KCl, 10 mM Na-Hepes, pH 7.4, 5 mM MgCl2) and allowed to equilibrate for 10 minutes at room temperature. 200 μM BIE was added to the mixture and aliquots were subsequently removed after 0 to 120 minutes of incubation. Samples were quenched and affinity purified as described in Haugland, Molecular Probes Handbook of Fluoprescent Probes and Research Chemicals. Aliquots were counted in a scintillation counter following ethanol precipitation (total RNA count) and following binding to streptavidin agarose (product RNA count); the ratio of these two counts is the fraction reacted. Optimizing enzymatic activity: It seemed likely that the original RNA pool from which the BL8-6 ribozyme was derived might not saturate the space of biotin-ligating ribozymes. To test the possibility that appropriate additional mutations to the BL8-6 sequence might increase its catalytic activity, a third RNA pool was generated based on its sequence but with non-wild-type nucleotides substituted at each position with 30% probability (FIG. 8D) (using methods described above). […] After eight rounds of selection (ending with a 1 minute incubation period at 10 μM BIE), active clones from the pool were sequenced and assayed for catalytic activity.

[16] = auto-thiophosphorylation, 6 ATP-γ-S concentrations
[17] = equilibrium gel filtration, 5 mM Mg, read-out: Kd (solution)

SMILES: Nc1ncnc2c1ncn2[C@@H]1O[C@H](COP(=O)(O)OP(=O)(O)OP(O)(O)=S)[C@@H](O)[C@H]1O [ATP-γ-S]
Km [1, 16]: 41 µM and 42 µM
kcat [1, 16]: 0.00333 ± 0.00033 s⁻¹ and 0.0055 ± 0.00033 s⁻¹
kcat/Km ([1]; self-phosphorylation): 100 M⁻¹ s⁻¹
kcat ([1]; self-phosphorylation, approximate value): approximately 0.3 min^-1
Km [2]: 50 µM and 58 µM
kcat [2]: 0.0012 ± 8.3e-05 s⁻¹ and 0.00167 ± 0.000267 s⁻¹
kcat [3]: 0.0005 ± 1.7e-05 s⁻¹

SMILES: Nc1ncnc2c1ncn2[C@@H]1O[C@H](COP(=O)(O)OP(=O)(O)OP(=O)(O)O)[C@@H](O)[C@H]1O [ATP]
Kd [4]: ~14 µM
Kd ([5]; Mg+2 concentration raised from 5 to 20 mM, method not stated, read-out: Kd): 2 µM
Kd [5, 17]: 6 to 8 µM
Kd [6]: > 500 µM
Kd [7]: > 500 µM
Kd [8]: 0.7 µM
Kd [9]: < 50 µM
estimated Kd [10]: ~ 250 μM
Kd [11]: < 50 µM
Kd [12]: < 50 µM
Kd [13]: < 50 µM

SMILES: O=C(CI)NCCNC(=O)CCCC[C@@H]1SC[C@@H]2NC(=O)N[C@@H]21 [BIE, N-biotinoyl-N'-iodoacetylethylenediamine]
rate of self-biotinylation ([14]; in the presence of 100 μM BIE): 0.05 min⁻¹
catalyzed biotinylation rate ([14]; time course experiment): approximately 8 s^-1 M^-1
rate of self-biotinylation [15]: 0.001 min⁻¹

SMILES: Nc1ncnc2c1ncn2[C@@H]1O[C@H](CO)[C@@H](O)[C@H]1O [adenosine]
Kd [5, 17]: 5 to 8 µM

Kd ([5]; not measurable, read-out: Kd (solution)): > 1000 µM
SMILES: Nc1ncnc2c1ncn2[C@H]1C[C@H](O)[C@@H](COP(=O)(O)OP(=O)(O)OP(=O)(O)O)O1 [dATP]
